Results on three compounds are retold here after patent publication US6589758B1, “Crystal of a kinase-ligand complex and methods of use” (priority 2000, dated 2003).

pIC50: −log10 of the molar value. Where two headings read alike, the source gives them in different places. Where only a bound is given, the exact number is not on record here.

Test [1] deals with TCR-induced IL-2 secretion from hPBL T-cells. Nature of the test: T-cell activation: TCR-induced IL-2 secretion from hPBL T-cells (ELISA). The conditions noted are these: anti-CD3/anti-CD28 stimulation, 20 hours, FIG. 7B, read-out: IC50 inhibition of IL-2 production in human T-cell cultures. Type of test: cell-based. Here is the method:
T-cell activation. Whole blood was obtained from normal donors and human peripheral blood lymphocytes (hPBL) were isolated by ficol-hypaque density centrifugation. T-cells were then purified from the hPBL by negative selection using an R&D column following the manufacturers directions (R&D Systems, Minneapolis, Minn.). A 96-well flat-bottomed plate was coated with 10 μg/ml of goat anti-mouse (GAM)-IgG1 (Caltag, Burlingame, Calif.) in PBS overnight at 4C. The GAM-coated plate was flicked out and anti-CD3 mAb (UCHT-1, Coulter/Immunotech, Miami, Fla.) is added at 0.2 μg/ml in AIMV medium (Gibco, Grand Island, N.Y.) for 3 hr. at 37C. Purified T-cells were pre-incubated at 1×10^5/well in AIM V with or without compound for 30 minutes then transferred to the anti-CD3 capture plate. Finally, anti-CD28 (Pharmingen, San Diego, Calif.) in AIMV (150 ng/ml final) was added to each well. Cells were incubated for 20 hours at 37C in 5% CO2 then supernatants were tested by ELISA for cytokine levels (Endogen, Woburn, Mass.).
In general terms: ELISA stands for enzyme-linked immunosorbent assay.

For test [2], the system named is TCR-induced phosphotyrosine incorporation into TCR p23 ζ-chain and a 70 kDa protein, Jurkat cells. The class given is cell-based. The settings on record: FIG. 7C. The method, then: Phosphotyrosine western blotting. […] Cells were then transferred to 37° C. water bath for 1 minute. Stimulation was stopped by the addition of 5 volumes of cold PBS containing 200 μM sodium orthovanadate. Cells were spun down and lysed in 150 mM Tris/10 mM HEPES buffer, pH 7.3, containing 1% Triton X-100 and Complete protease inhibitor cocktail (Boehringer Mannheim, Germany) for 30 minutes on ice. […] Blots were probed with anti-phosphotyrosine (4G10, Upstate Biotechnology, Inc., Saranac Lake, N.Y.) and developed using ECL-plus following the manufacturers directions (Amersham, Arlington Heights, Ill.).

Test [3] concerns the target T1, ZAP-70 (Homo sapiens, UniProt P43403).
T1 sequence (P43403 1-619): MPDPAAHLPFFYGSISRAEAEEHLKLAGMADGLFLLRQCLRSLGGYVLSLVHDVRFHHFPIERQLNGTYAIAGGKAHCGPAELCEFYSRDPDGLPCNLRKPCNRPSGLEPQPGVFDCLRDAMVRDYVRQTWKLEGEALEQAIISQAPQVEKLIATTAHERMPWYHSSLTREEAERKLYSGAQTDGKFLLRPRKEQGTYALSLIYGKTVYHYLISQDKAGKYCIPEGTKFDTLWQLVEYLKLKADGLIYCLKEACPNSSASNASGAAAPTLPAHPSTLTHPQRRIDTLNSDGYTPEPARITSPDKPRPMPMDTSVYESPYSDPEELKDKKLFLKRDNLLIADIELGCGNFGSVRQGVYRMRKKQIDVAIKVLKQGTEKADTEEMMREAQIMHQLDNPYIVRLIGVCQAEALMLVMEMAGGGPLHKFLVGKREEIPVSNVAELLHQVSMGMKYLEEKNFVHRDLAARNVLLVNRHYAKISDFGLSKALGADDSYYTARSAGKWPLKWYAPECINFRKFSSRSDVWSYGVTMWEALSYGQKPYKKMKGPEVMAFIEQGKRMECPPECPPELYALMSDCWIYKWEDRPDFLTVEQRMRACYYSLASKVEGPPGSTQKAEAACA
The conditions noted are these: reported in ref [51]; read-out: IC50 against ZAP-70; cited from earlier work.

In test [4] the target is Lck (Homo sapiens, UniProt P06239). The conditions noted are these: reported in ref [51]; cited from earlier work.
Lck, sequence (P06239 whole entry, species assumed): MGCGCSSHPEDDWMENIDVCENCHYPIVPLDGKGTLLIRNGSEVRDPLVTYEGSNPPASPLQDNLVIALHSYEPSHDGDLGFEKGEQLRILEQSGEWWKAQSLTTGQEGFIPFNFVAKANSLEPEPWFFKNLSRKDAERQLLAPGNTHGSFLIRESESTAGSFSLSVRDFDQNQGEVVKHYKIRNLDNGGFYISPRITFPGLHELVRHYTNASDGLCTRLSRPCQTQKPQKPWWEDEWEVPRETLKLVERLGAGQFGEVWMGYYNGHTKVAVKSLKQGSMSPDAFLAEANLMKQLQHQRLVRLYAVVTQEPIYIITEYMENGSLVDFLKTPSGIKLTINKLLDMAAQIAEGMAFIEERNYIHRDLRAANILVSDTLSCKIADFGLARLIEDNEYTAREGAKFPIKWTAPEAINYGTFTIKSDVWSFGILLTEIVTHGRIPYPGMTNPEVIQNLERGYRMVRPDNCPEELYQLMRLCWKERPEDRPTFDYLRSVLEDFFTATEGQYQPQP

In general, pIC50 refers to −log10 of the IC50, conventionally taken in molar units. As to `CC(C)(C)n1nc(-c2ccc(Cl)cc2)c2c(N)ncnc21` [PP2], the values for the pIC50 in test [1] and in test [3] were 6.22 and at most 4.00, respectively. Besides, the “inhibition of Lck-dependent phosphorylation of the TCR ζ-chain (p23)” value in test [2] is on record as “dose-dependent inhibition”. The “inhibition of phosphorylation of a 70 kD protein (likely ZAP-70)” value in test [2] is reported as “inhibited”.
Regarding `CN[C@@H]1C[C@H]2O[C@@](C)([C@@H]1OC)n1c3ccccc3c3c4c(c5c6ccccc6n2c5c31)C(=O)NC4` [staurosporine], the pIC50 in test [1] (Homo sapiens, T-cell) is 7.22.
For the compound `Cc1ccc(-c2nn(C(C)(C)C)c3ncnc(N)c23)cc1` [PP1], in test [4], the “inhibitory activity against Lck compared with PP2” value was “approximately the same inhibitory activity”.
